Data published in the supplement of paper PMC10307832.

compound: Cn1nnc2c(C(N)=O)ncn2c1=O [Temozolomide] + CC(=O)c1c(C)c2cnc(Nc3ccc(N4CCNCC4)cn3)nc2n(C2CCCC2)c1=O [Palbociclib] (partner 0.5 µM); assay: relative viability (nuclei count vs DMSO), 5 days (fraction); higher = more cells survive; settings: first compound 0.2 µM
Method in brief: (§1)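 Values are medians from duplicate plates. Each reflects relative viability, defined as the nuclei count of treated wells over that of vehicle wells. Lung cancer cell lines in 1536-well plates were pin-tool dosed one day after seeding with one drug alone or with a fixed anchor-drug dose plus five library-drug doses (not always all listed) in √10 steps, then fixed, stained and imaged at 4× after 5 days.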

| Cell Line | relative viability |
| --- | --- |
| 201T | 0.348 |
| A-427 | 0.519 |
| ABC-1 | 0.639 |
| BEN | 0.483 |
| CAL-12T | 0.285 |
| COR-L23 | 0.383 |
| COR-L 105 | 0.433 |
| ChaGo-K-1 | 1.05 |
| EMC-BAC-2 | 0.563 |
| EPLC-272H | 0.319 |
| HCC-15 | 0.778 |
| HCC-44 | 0.984 |
| HCC-78 | 0.474 |
| HCC-366 | 0.449 |
| HCC-827 | 0.461 |
| HOP-62 | 0.545 |
| LC-2-ad | 0.474 |
| LCLC-97TM1 | 0.272 |
| LCLC-103H | 0.503 |
| LK-2 | 0.599 |
| LOU-NH91 | 0.585 |
| LU99A | 0.447 |

| Cell Line | relative viability |
| --- | --- |
| LXF-289 | 0.616 |
| NCI-H23 | 0.59 |
| NCI-H322M | 0.451 |
| NCI-H358 | 0.137 |
| NCI-H441 | 0.23 |
| NCI-H460 | 0.159 |
| NCI-H520 | 0.215 |
| NCI-H522 | 0.976 |
| NCI-H647 | 0.374 |
| NCI-H650 | 0.373 |
| NCI-H661 | 0.344 |
| NCI-H838 | 0.23 |
| NCI-H1355 | 0.35 |
| NCI-H1395 | 0.532 |
| NCI-H1437 | 0.292 |
| NCI-H1650 | 0.339 |
| NCI-H1651 | 0.497 |
| NCI-H1666 | 0.693 |
| NCI-H1734 | 0.359 |
| NCI-H1755 | 0.443 |
| NCI-H1792 | 0.569 |

same assay, conditions: first compound 0.6325 µM

| Cell Line | relative viability |
| --- | --- |
| 201T | 0.361 |
| A-427 | 0.575 |
| ABC-1 | 0.777 |
| BEN | 0.466 |
| CAL-12T | 0.568 |
| COR-L23 | 0.398 |
| COR-L 105 | 0.446 |
| ChaGo-K-1 | 0.967 |
| EKVX | 0.322 |
| EMC-BAC-2 | 0.534 |
| EPLC-272H | 0.337 |
| H3255 | 0.315 |
| HARA | 0.307 |
| HCC-15 | 0.717 |
| HCC-44 | 0.943 |
| HCC-78 | 0.475 |
| HCC-366 | 0.467 |
| HCC-827 | 0.449 |
| HOP-62 | 0.488 |
| LC-2-ad | 0.494 |
| LCLC-97TM1 | 0.237 |
| LCLC-103H | 0.514 |
| LK-2 | 0.719 |
| LOU-NH91 | 0.566 |
| LU99A | 0.42 |

| Cell Line | relative viability |
| --- | --- |
| LXF-289 | 0.626 |
| NCI-H23 | 0.55 |
| NCI-H322M | 0.483 |
| NCI-H358 | 0.143 |
| NCI-H441 | 0.211 |
| NCI-H460 | 0.175 |
| NCI-H520 | 0.225 |
| NCI-H522 | 0.919 |
| NCI-H647 | 0.502 |
| NCI-H650 | 0.328 |
| NCI-H661 | 0.393 |
| NCI-H727 | 0.579 |
| NCI-H838 | 0.237 |
| NCI-H1355 | 0.4 |
| NCI-H1395 | 0.62 |
| NCI-H1437 | 0.336 |
| NCI-H1648 | 0.23 |
| NCI-H1650 | 0.406 |
| NCI-H1651 | 0.557 |
| NCI-H1666 | 0.672 |
| NCI-H1734 | 0.398 |
| NCI-H1755 | 0.478 |
| NCI-H1792 | 0.654 |
| NCI-H1793 | 0.268 |

same assay, conditions: first compound 2 µM

| Cell Line | relative viability |
| --- | --- |
| 201T | 0.382 |
| A-427 | 0.518 |
| ABC-1 | 0.707 |
| BEN | 0.469 |
| CAL-12T | 0.608 |
| COR-L23 | 0.311 |
| COR-L 105 | 0.402 |
| ChaGo-K-1 | 0.967 |
| EKVX | 0.292 |
| EMC-BAC-2 | 0.542 |
| EPLC-272H | 0.356 |
| H3255 | 0.302 |
| HARA | 0.303 |
| HCC-15 | 0.805 |
| HCC-44 | 0.921 |
| HCC-78 | 0.458 |
| HCC-366 | 0.341 |
| HCC-827 | 0.513 |
| HOP-62 | 0.473 |
| LC-2-ad | 0.512 |
| LCLC-97TM1 | 0.197 |
| LCLC-103H | 0.496 |
| LK-2 | 0.601 |
| LOU-NH91 | 0.552 |
| LU99A | 0.472 |

| Cell Line | relative viability |
| --- | --- |
| LXF-289 | 0.606 |
| NCI-H23 | 0.504 |
| NCI-H322M | 0.465 |
| NCI-H358 | 0.128 |
| NCI-H441 | 0.211 |
| NCI-H460 | 0.152 |
| NCI-H520 | 0.228 |
| NCI-H522 | 1.05 |
| NCI-H647 | 0.375 |
| NCI-H650 | 0.319 |
| NCI-H661 | 0.437 |
| NCI-H727 | 0.676 |
| NCI-H838 | 0.226 |
| NCI-H1355 | 0.413 |
| NCI-H1395 | 0.663 |
| NCI-H1437 | 0.31 |
| NCI-H1648 | 0.318 |
| NCI-H1650 | 0.362 |
| NCI-H1651 | 0.5 |
| NCI-H1666 | 0.642 |
| NCI-H1734 | 0.349 |
| NCI-H1755 | 0.477 |
| NCI-H1792 | 0.638 |
| NCI-H1793 | 0.367 |

same assay, conditions: first compound 6.325 µM

| Cell Line | relative viability |
| --- | --- |
| 201T | 0.362 |
| A-427 | 0.492 |
| ABC-1 | 0.65 |
| BEN | 0.487 |
| CAL-12T | 0.484 |
| COR-L23 | 0.266 |
| COR-L 105 | 0.383 |
| ChaGo-K-1 | 0.873 |
| EKVX | 0.323 |
| EMC-BAC-2 | 0.511 |
| EPLC-272H | 0.321 |
| H3255 | 0.312 |
| HARA | 0.302 |
| HCC-15 | 0.691 |
| HCC-44 | 0.988 |
| HCC-78 | 0.473 |
| HCC-366 | 0.396 |
| HCC-827 | 0.517 |
| HOP-62 | 0.375 |
| LC-2-ad | 0.537 |
| LCLC-97TM1 | 0.231 |
| LCLC-103H | 0.608 |
| LK-2 | 0.327 |
| LOU-NH91 | 0.557 |
| LU99A | 0.387 |

| Cell Line | relative viability |
| --- | --- |
| LXF-289 | 0.579 |
| NCI-H23 | 0.403 |
| NCI-H322M | 0.441 |
| NCI-H358 | 0.136 |
| NCI-H441 | 0.245 |
| NCI-H460 | 0.267 |
| NCI-H520 | 0.278 |
| NCI-H522 | 1.02 |
| NCI-H647 | 0.342 |
| NCI-H650 | 0.329 |
| NCI-H661 | 0.411 |
| NCI-H727 | 0.715 |
| NCI-H838 | 0.25 |
| NCI-H1355 | 0.404 |
| NCI-H1395 | 0.616 |
| NCI-H1437 | 0.329 |
| NCI-H1648 | 0.273 |
| NCI-H1650 | 0.355 |
| NCI-H1651 | 0.526 |
| NCI-H1666 | 0.756 |
| NCI-H1734 | 0.355 |
| NCI-H1755 | 0.436 |
| NCI-H1792 | 0.663 |
| NCI-H1793 | 0.318 |

same assay, conditions: first compound 20 µM

| Cell Line | relative viability |
| --- | --- |
| 201T | 0.355 |
| A-427 | 0.427 |
| ABC-1 | 0.65 |
| BEN | 0.471 |
| CAL-12T | 0.405 |
| COR-L23 | 0.269 |
| COR-L 105 | 0.33 |
| ChaGo-K-1 | 0.917 |
| EKVX | 0.223 |
| EMC-BAC-2 | 0.514 |
| EPLC-272H | 0.299 |
| H3255 | 0.297 |
| HARA | 0.233 |
| HCC-15 | 0.706 |
| HCC-44 | 0.981 |
| HCC-78 | 0.487 |
| HCC-366 | 0.369 |
| HCC-827 | 0.148 |
| HOP-62 | 0.447 |
| LC-2-ad | 0.473 |
| LCLC-97TM1 | 0.191 |
| LCLC-103H | 0.413 |
| LK-2 | 0.2 |
| LOU-NH91 | 0.572 |
| LU99A | 0.388 |

| Cell Line | relative viability |
| --- | --- |
| LXF-289 | 0.564 |
| NCI-H23 | 0.433 |
| NCI-H322M | 0.414 |
| NCI-H358 | 0.131 |
| NCI-H441 | 0.226 |
| NCI-H460 | 0.183 |
| NCI-H520 | 0.243 |
| NCI-H522 | 0.682 |
| NCI-H647 | 0.188 |
| NCI-H650 | 0.314 |
| NCI-H661 | 0.402 |
| NCI-H727 | 0.703 |
| NCI-H838 | 0.252 |
| NCI-H1355 | 0.361 |
| NCI-H1395 | 0.535 |
| NCI-H1437 | 0.325 |
| NCI-H1648 | 0.283 |
| NCI-H1650 | 0.28 |
| NCI-H1651 | 0.547 |
| NCI-H1666 | 0.667 |
| NCI-H1734 | 0.353 |
| NCI-H1755 | 0.424 |
| NCI-H1792 | 0.619 |
| NCI-H1793 | 0.264 |

compound: Cn1nnc2c(C(N)=O)ncn2c1=O [Temozolomide] + O=C(c1cc(Cc2n[nH]c(=O)c3ccccc23)ccc1F)N1CCN(C(=O)C2CC2)CC1 [Olaparib] (partner 8 µM); assay: as above; settings: first compound 0.2 µM
Method in brief: as §1

| Cell Line | relative viability |
| --- | --- |
| 201T | 0.843 |
| A549 | 0.358 |
| A-427 | 0.681 |
| ABC-1 | 0.921 |
| BEN | 0.891 |
| CAL-12T | 0.865 |
| COR-L23 | 0.374 |
| COR-L 105 | 0.585 |
| Calu-6 | 0.787 |
| ChaGo-K-1 | 0.437 |
| EBC-1 | 0.765 |
| EMC-BAC-2 | 0.667 |
| EPLC-272H | 1.13 |
| HARA | 0.9 |
| HCC-15 | 0.791 |
